# Reference: article PMC4726189, “Blocking protein phosphatase 2A signaling prevents endothelial-to-mesenchymal transition and renal fibrosis: a peptide-based drug therapy” (Scientific Reports, 2016)
# Legend:
# [1] = Whole-body and ex vivo organ fluorescence imaging of FITC-labeled peptide in mice; set-up: species or system C57/B mice
# Method: FITC-loaded peptides were injected through the tail vein or intraperitoneally administered into C57/B mice at a dose of 5 nmol/g of body weight. Whole body fluorescence imaging was performed using an in vivo imaging system (IVIS Spectrum, Caliper, USA) at 0, 0.5, 4 or 24 h post-injection. Subsequently, the mice were sacrificed, and their organs such as the liver, spleen, kidneys, heart, and lung were excised and subjected to ex vivo fluorescence imaging. At the same time, 1 mL of blood was drawn from the retro-orbital sinus after injection at different time points.
# HUVECs [2] = assay: Cellular uptake of FITC-labeled peptide in HUVECs; assay type: cell-based, human; conditions: fluorescence, n=3
# Method: To further confirm the hypothesis, PP2Ac mimic peptides (Y127WT,Y130WT,Y265WT, Y267WT,Y284WT) were designed to assess the significance of Tyr127 and other Tyr sites on TGF-β1-driven EndMT. To enhance the penetration of synthetic peptides, a cell-permeable peptide transactivator of transcription (TAT) was used[20][21]. The conjugated peptide TAT-Y127WT was labeled with fluorescein isothiocyanate (FITC) and analyzed for cellular uptake. […] Thus, at the dose of 10 μM, we investigated the anti-EndMT effects of TAT-Y127WT compared with the other four peptides.
# (§1) Figure S2. The penetration and cytotoxicity of TAT-Y127WT to HUVECs.
# (§2) HUVECs were incubated with various concentrations (0,1,5,10,20,or 50μM) of TAT-Y127WT. Cytotoxicity was measured with the CCK-8 assay. (c)
# (§3) Immunofluorescence distribution of TAT-Y127WT and cell morphology. Nuclei were counterstained with DAPI (blue). n=3. Scale bars, 20μm.
# (§4) Supplementary Methods: Mass Spectrometry Experiments
# Protein Digestion-The protein bands were digested according to an in-gel digestion procedure. The gels were dried in a vacuum centrifuge. Briefly, the in-gel proteins were reduced with dithiothreitol (10 mM DTT/100 mM NH4HCO3 ) for 30 min at 56°C, then alkylated with iodoacetamide (200 mM IAA/100 mM NH4HCO3) in the dark at room temperature for 30 minutes. Gel pieces were briefly rinsed with 100 mM NH4HCO3 and ACN. […]
# HUVECs [3] = assay: Cytotoxicity to HUVECs, CCK-8 assay; assay type: cell-based, human; conditions: approximately 5–10 μM (0, 1, 5, 10, 20 or 50 μM tested), n=3
# Method: as §1, §2, §3, §4
# Protein Digestion-The protein bands were digested according to an in-gel digestion procedure. The gels were dried in a vacuum centrifuge. Briefly, the in-gel proteins were reduced with dithiothreitol (10 mM DTT/100 mM NH4HCO3 ) for 30 min at 56°C, then alkylated with iodoacetamide (200 mM IAA/100 mM NH4HCO3) in the dark at room temperature for 30 minutes. Gel pieces were briefly rinsed with 100 mM NH4HCO3 and ACN. Gel pieces were digested overnight in 12.5 ng/μl trypsin in 25 mM NH4HCO3. The peptides were extracted three times with 60% ACN/0.1% TFA.
# The extracts were pooled and dried completely by a vacuum centrifuge.
# Identification of the Modification Sites-Experiments were performed on a Q Exactive mass spectrometer that was coupled to Easy nLC (Proxeon Biosystems, now Thermo Fisher Scientific). Approximately 3 μl of the sample was injected for nanoLC-MS/MS analysis. The peptide mixture (1 μg) was loaded onto the C18-reversed phase column
# (1 picture or pasted object on this page, not shown here)
# HUVECs [4] = assay: TGF-β1-induced EndMT in HUVECs, western blot of VE-cadherin and α-SMA; assay type: cell-based, human; conditions: n ≥ 3
# Method: (§5) Human umbilical vein endothelial cells (HUVECs, ATCC) were cultured in RPMI-1640 (Gibco) supplemented with 10% fetal bovine serum (FBS, HyClone). When 30% confluent, cells were cultured in serum-free medium before recombinant human TGF-β1 (10 ng/ml; Peprotech) treatment. In some experiments, cells were pretreated with PP2A inhibitor OA (10 nM; Sigma) for 1 h before the addition of TGF-β1. For all cell stimulations, n ≥ 3 independent experiments were performed.
# Renal tissues or cells were harvested and centrifuged at 12,000 g to remove cell debris. Protein concentration was measured using a BCA assay kit (Pierce). Eighty micrograms of protein was subjected to SDS-PAGE and transferred onto polyvinylidene difluoride membranes. After transfer, the membranes were blocked and blotted routinely with antibodies against VE-cadherin (BD Biosciences), α-SMA (Abcam), collagen1 (Abcam), PP2Ac (Cell Signaling Technology), occludin (Invitrogen), P-threonine/P-serine (Santa Cruz), nitrotyrosine (Cayman), acetylated-lysine (Cell Signaling Technology), phosphotyrosine (PY-20,Biolgend), PP2A,C subunit, demethylated (Millipore), vimentin (Boster) and CD31 (Proteintech). The immunolabeled proteins were detected by enhanced chemiluminescence (Pierce).The density of the bands was analyzed by Quantity One software (Bio-Rad).
# occludin = assay: Serine/threonine phosphorylation of occludin in immunoprecipitates from TGF-β1-treated HUVECs; assay type: cell-based, human; conditions: n ≥ 3
# Method: as §5
# Cell lysates were centrifuged at 12,000g for 30 min at 4 °C. Approximately 1 mg of each lysate was incubated overnight at 4 °C with 2 μg of anti-occludin, anti-PP2Ac or IgG antibody (a negative control), followed by incubation with Protein A/G-Agarose for 1 hr to capture immunoprecipitates. Bead complexes were washed four times in lysis buffer and then resuspended in 2 × SDS buffer and heated for 10 min at 90 °C. Lysates were electrophoresed, transferred to PVDF filters, and subsequently immunoblotted with antibodies.
# PP2A [5] = conditions: inhibition of PP2A by okadaic acid; cited from earlier work
# Source text: The vast majority of biological processes, including renal fibrosis, are regulated by the balance between the activities of kinases and phosphatases. The significance of kinases has been intensively discussed in kidney disease for decades, however, the roles of phosphatases remain poorly understood. Protein phosphatase 2A (PP2A) is a ubiquitously expressed protein serine/threonine phosphatase that accounts for a large fraction of phosphatase activity in eukaryotic cells. As a heterotrimer, PP2A is composed of three subunits: a catalytic C subunit (PP2Ac), a structural A subunit (PP2Aa) ...
# PP2A [6] = conditions: cited from earlier work
# Source text: (§6) Therefore, blocking PP2Ac Tyr127 nitration is considered a potential therapeutic approach. […] Peptide-based drugs have garnered much attention because of their high potencies of action and relatively few off-target side-effects[52][53].
# Caco-2 Cells = conditions: cited from earlier work
# Source text: as §6
# [7] = FITC-labeled peptide, tail vein injection, ex vivo organ imaging at different time points
# [8] = OA 10 nM for 1 h before TGF-β1 10 ng/ml
# Method for UUO mice: Mice aged 6–8 weeks were grouped as sham-operated, UUO, UUO +TAT-Y127WT and UUO + TAT-Y127Scr and tail vein injected 1d before surgery. To perform UUO surgery, mice were anesthetized with ketamine hydrochloride (80 mg/kg body weight, intraperitoneally) before surgery and the left kidney was exposed through a flank incision and the left ureter tied off at the level of the lower pole of the kidney with two 4.0 silk ties. All mice were euthanized at the end of the experiments after obstruction, and some kidney tissues were fixed with 4% paraformaldehyde. The remainder was frozen in liquid nitrogen for later use.
# Four-micrometer-thick paraffin sections were incubated with primary antibodies overnight at 4 °C and were then incubated with biotinylated goat anti-rabbit IgG or goat anti-mouse IgG for 45 min followed by diaminobenzidine (DAKO) staining. All sections were examined under a light microscope (Olympus BX-50) and digitized with a high-resolution camera. For immunofluorescence studies, after incubated with primary antibody, sections (including serial sections) were incubated with FITC- or CY3-conjugated goat antibody (Jackson ImmunoResearch) for 45 min at 37 °C and then counterstained with DAPI (Vector Laboratories) and analyzed by confocal laser scanning microscopy. 3D reconstructed technology was based on confocal laser-scanning microscopy and analyzed by the software (LAS-AF-Lite 2.6.3). PTC density was analyzed as described with some modifications[56].
compound,measurement,setting,value
"ITQVYGFYD [TAT-Y127WT, mimic peptide derived from PP2Ac conjugating a cell penetrating peptide (CPP: TAT)]",time to disappearance of the fluorescence signal after injection,"[1]; FITC-labeled peptide 5 nmol/g intravenously, whole-body imaging at 0, 0.5, 4, 24 h and blood samples (n = 6)",≤ 24 h
same,fluorescence in heart and lung,[1]; [7],small signal
same,fluorescence in kidney and liver,[1]; [7],strongly detected
same,fluorescence in spleen,[1]; [7],no signal
same,cell transduction,HUVECs [2]; 10 μM,effectively transduces cells
same,cell penetration,"HUVECs [2]; FITC-labeled peptide, approximately 5–10 μM",efficient cell penetration
same,density of peritubular capillaries,"UUO mice; 5 nmol/g per day, CD31+ PTC numbers per visual field, n = 8",preserved density
same,number of CD31+/α-SMA+ areas in the interstitium (EndMT level),"UUO mice; 5 nmol/g per day, confocal microscopy, n = 8",dramatically decreased
same,"excessive extracellular matrix (ECM) production, α-SMA and vimentin deposition","UUO mice; 5 nmol/g per day, immunohistochemical staining, n = 8",attenuated
same,PP2Ac nitration,UUO mice; administration of the peptide,significantly reduces
same,cytotoxicity to HUVECs,HUVECs [3],low cytotoxicity
same,potency to inhibit TGF-β1-induced VE-cadherin decrease and α-SMA increase,"HUVECs [4]; peptide 10 μM, TGF-β1, 72 h, compared with the other four peptides",higher potency
same,increase of α-SMA,"HUVECs [4]; pretreatment with peptide, TGF-β1, 72 h",inhibited
same,serine and threonine phosphorylation of occludin,"occludin; TGF-β1, 72 h, compared with TAT-Y127Scr treatment",significantly increased
"C=C1[C@@H](O)[C@@H]2O[C@]3(CC[C@H](/C=C/[C@@H](C)[C@@H]4CC(C)=C[C@@]5(O[C@H](C[C@@](C)(O)C(=O)O)CC[C@H]5O)O4)O3)CC[C@H]2O[C@@H]1[C@@H](O)C[C@H](C)[C@H]1O[C@@]2(CCCCO2)CC[C@H]1C [OA, okadaic acid, reference compound]",VE-cadherin expression,HUVECs [4]; [8],maintained
same,α-SMA expression induced by TGF-β1,HUVECs [4]; [8],markedly attenuated
same,effect of PP2A on thrombin- or nocodazole-induced changes in EC cytoskeleton,PP2A [5],abolished
same,TGF-β1-induced decrease of phosphorylated serine and threonine residues in occludin immunoprecipitates,occludin; pretreatment with OA 10 nM for 1 h,significantly dampened
TPDYFL,PP2A translocation in cardiac myocytes,PP2A [6],attenuate
same,acetaldehyde-induced tight junction disruption and barrier dysfunction,Caco-2 Cells,prevented
